Experiments:
[1] = molecular target: T1, human cystic fibrosis conductance transmembrane regulator (CFTR) (Homo sapiens, UniProt P13569); assay: Effect upon CFTR chloride ion channel activity (YFP fluorescence quenching by iodide influx in FRT cells); type: cell-based; details: for CFTR activity ratio, result in words: 30 μM, comment on Table 2; for Emax at 30 µM: FRT, 10 min, final concentration of 30 μM, reaction for 10 minutes, ratio based on the CFTR activity maximized by forskolin
T1 construct: expressed in transfected cells; host or cells: FRT cells (Fischer rat thyroid epithelial cells)
Method: FRT cells expressing […] specific to human cystic fibrosis conductance transmembrane regulator (CFTR) and iodide ions are cultured in the Coon's modified F-12 culture medium for 48 hours on a 96-well plate. Each well of the plate containing the cultured cells is washed three times with 200 μl of PBS buffer, and then 100 μl of PBS buffer is added to each well. The indolizino[3,2-c]quinoline derivative according to each Example is introduced to each well to a final concentration of 30 μM, followed by reaction for 10 minutes. After the completion of the reaction, the 96-well is mounted to a FLUOstar Omega microplate reader (BMG LABTECH) and 100 μl of NaI solution is added to each well. Then, YFP fluorescence reduced by the iodide ions introduced to the cells through CFTR is recorded at an interval of 0.4 seconds for 24 seconds in total, thereby evaluating the effect of each compound upon CFTR activity.
The effect of each indolizino[3,2-c]quinoline derivative upon CFTR chloride ion channel activity is calculated as an activity ratio based on the CFTR activity maximized by a well-known CFTR agonist, forskolin.

T1 sequence (P13569 whole entry): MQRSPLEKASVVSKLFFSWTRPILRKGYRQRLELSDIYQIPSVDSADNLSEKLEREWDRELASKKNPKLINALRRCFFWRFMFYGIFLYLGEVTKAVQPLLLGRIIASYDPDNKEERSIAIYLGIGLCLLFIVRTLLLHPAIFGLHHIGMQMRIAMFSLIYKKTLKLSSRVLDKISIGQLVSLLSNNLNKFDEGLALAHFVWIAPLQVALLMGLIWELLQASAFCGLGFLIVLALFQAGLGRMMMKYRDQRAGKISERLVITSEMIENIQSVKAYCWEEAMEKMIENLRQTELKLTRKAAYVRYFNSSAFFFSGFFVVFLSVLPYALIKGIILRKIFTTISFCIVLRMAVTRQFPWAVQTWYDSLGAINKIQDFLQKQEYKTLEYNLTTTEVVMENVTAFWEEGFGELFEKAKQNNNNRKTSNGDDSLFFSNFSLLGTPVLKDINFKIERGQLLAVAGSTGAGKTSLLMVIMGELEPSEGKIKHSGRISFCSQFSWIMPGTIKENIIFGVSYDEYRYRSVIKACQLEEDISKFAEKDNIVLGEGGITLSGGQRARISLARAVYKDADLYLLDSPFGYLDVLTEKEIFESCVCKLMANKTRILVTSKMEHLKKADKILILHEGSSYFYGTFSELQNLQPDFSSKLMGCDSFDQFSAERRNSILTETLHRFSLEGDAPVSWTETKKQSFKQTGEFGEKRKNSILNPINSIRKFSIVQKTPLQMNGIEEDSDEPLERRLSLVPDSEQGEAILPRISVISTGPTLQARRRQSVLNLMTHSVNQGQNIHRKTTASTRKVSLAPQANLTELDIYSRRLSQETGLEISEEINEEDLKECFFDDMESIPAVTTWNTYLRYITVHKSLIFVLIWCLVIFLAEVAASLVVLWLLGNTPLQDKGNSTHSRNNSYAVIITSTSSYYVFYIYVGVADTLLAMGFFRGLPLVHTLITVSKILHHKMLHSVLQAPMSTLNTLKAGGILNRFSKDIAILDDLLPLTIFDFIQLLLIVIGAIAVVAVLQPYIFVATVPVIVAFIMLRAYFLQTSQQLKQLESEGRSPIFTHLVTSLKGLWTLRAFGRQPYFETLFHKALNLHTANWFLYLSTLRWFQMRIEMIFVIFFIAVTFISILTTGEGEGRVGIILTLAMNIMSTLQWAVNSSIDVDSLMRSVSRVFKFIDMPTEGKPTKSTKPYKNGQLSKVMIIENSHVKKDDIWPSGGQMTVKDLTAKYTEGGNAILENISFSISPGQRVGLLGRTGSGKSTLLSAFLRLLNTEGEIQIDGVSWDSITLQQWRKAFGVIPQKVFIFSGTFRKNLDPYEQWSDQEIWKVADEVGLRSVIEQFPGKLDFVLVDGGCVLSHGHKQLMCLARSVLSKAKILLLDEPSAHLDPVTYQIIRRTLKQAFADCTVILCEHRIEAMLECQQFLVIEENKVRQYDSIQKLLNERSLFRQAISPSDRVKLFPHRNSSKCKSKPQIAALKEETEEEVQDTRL

SMILES	CFTR activity ratio, result in words [1]	Emax at 30 µM [1]	melting point
Brc1ccc(-c2nc3ccccc3c3cc4ccccn4c23)cc1 [Example 1, 6-(4-Bromophenyl)indolizino[3,2-c]quinoline]	high activity ratio	85%	205.5 to 205.8 °C
Fc1ccc(-c2nc3ccccc3c3cc4ccccn4c23)cc1 [Example 2, 6-(4-Fluorophenyl)indolizino[3,2-c]quinoline]			167 to 167.4 °C
Clc1ccc(-c2nc3ccccc3c3cc4ccccn4c23)cc1 [Example 3, 6-(4-Chlorophenyl)indolizino[3,2-c]quinoline]			190.5 to 191 °C
Clc1cccc(-c2nc3ccccc3c3cc4ccccn4c23)c1 [Example 4, 6-(3-Chlorophenyl)indolizino[3,2-c]quinoline]			124.3 to 125.3 °C
O=[N+]([O-])c1ccc(-c2nc3ccccc3c3cc4ccccn4c23)cc1 [Example 5, 6-(4-Nitrophenyl)indolizino[3,2-c]quinoline]	high activity ratio	93%	246.3 to 246.5 °C
c1ccc(-c2nc3ccccc3c3cc4ccccn4c23)cc1 [Example 6, 6-Phenylindolizino[3,2-c]quinoline]			141.9 to 142.8 °C
COc1ccc(-c2nc3ccccc3c3cc4ccccn4c23)cc1 [Example 7, 6-(4-Methoxyphenyl)indolizino[3,2-c]quinoline]			164.3 to 164.7 °C
COc1cccc(-c2nc3ccccc3c3cc4ccccn4c23)c1 [Example 8, 6-(3-Methoxyphenyl)indolizino[3,2-c]quinoline]			174 to 174.4 °C
Cc1ccc(-c2nc3ccccc3c3cc4ccccn4c23)cc1 [Example 9, 6-(p-Tolyl)indolizino[3,2-c]quinoline]			85.3 to 86 °C
COc1cc(OC)cc(-c2nc3ccccc3c3cc4ccccn4c23)c1 [Example 10, 6-(3,5-Dimethoxyphenyl)indolizino[3,2-c]quinoline]	high activity ratio	63%	139.7 to 140.4 °C
COc1ccc(-c2nc3ccccc3c3cc4ccccn4c23)cc1OC [Example 11, 6-(3,4-Dimethoxyphenyl)indolizino[3,2-c]quinoline]			91.3 to 92 °C
c1ccc2cc(-c3nc4ccccc4c4cc5ccccn5c34)ccc2c1 [Example 13, 6-(Naphthalen-2-yl)indolizino[3,2-c]quinoline]	high activity ratio	83%	205.6 to 206.2 °C
Clc1ccc(-c2nc3ccccc3c3cc4ccccn4c23)s1 [Example 15, 6-(5-Chlorothiophen-2-yl)indolizino[3,2-c]quinoline]	high activity ratio	98%	161.4 to 161.7 °C
Cc1cccn2c1cc1c3ccccc3nc(-c3cccc(F)c3)c12 [Example 17, 6-(3-Fluorophenyl)-11-methylindolizino[3,2-c]quinoline]		50%	176.1 to 176.5 °C
Cc1cccn2c1cc1c3ccccc3nc(-c3ccc([N+](=O)[O-])cc3)c12 [Example 18, 11-Methyl-6-(4-nitrophenyl)indolizino[3,2-c]quinoline]			259.7 to 260.4 °C
COc1cccc(-c2nc3ccccc3c3cc4c(C)cccn4c23)c1 [Example 19, 6-(3-Methoxyphenyl)-11-methylindolizino[3,2-c]quinoline]			165 to 166 °C
Cc1ccc(-c2nc3ccccc3c3cc4c(C)cccn4c23)cc1 [Example 20, 11-Methyl-6-(p-tolyl)indolizino[3,2-c]quinoline]			162.5 to 163.1 °C
COc1cc(OC)cc(-c2nc3ccccc3c3cc4c(C)cccn4c23)c1 [Example 21, 6-(3,5-Dimethoxyphenyl)-11-methylindolizino[3,2-c]quinoline]		66%	185.8 to 186.4 °C
COc1ccc(-c2nc3ccccc3c3cc4c(C)cccn4c23)cc1OC [Example 22, 6-(3,4-Dimethoxyphenyl)-11-methylindolizino[3,2-c]quinoline]			162.8 to 163.3 °C
COc1ccc(-c2nc3ccccc3c3cc4ccc(Br)cn4c23)cc1 [Example 24, 9-Bromo-6-(4-methoxyphenyl)indolizino[3,2-c]quinoline]			229.5 to 230 °C
Cc1ccc(-c2nc3ccccc3c3cc4ccc(Br)cn4c23)cc1 [Example 25, 9-Bromo-6-(p-tolyl)indolizino[3,2-c]quinolone]			230.8 to 231.2 °C

More lines, now with the values ahead:

CFTR activity ratio, result in words [1]	Emax at 30 µM [1]	melting point	SMILES
		188.5 to 189 °C	COc1ccc(-c2nc3ccccc3c3cc4ccc(Br)cn4c23)cc1OC [Example 26, 9-Bromo-6-(3,4-dimethoxyphenyl)indolizino[3,2-c]quinoline]
		223.3 to 223.7 °C	Brc1ccc2cc3c4ccccc4nc(-c4ccc(Br)s4)c3n2c1 [Example 28, 9-Bromo-6-(5-bromothiophen-2-yl)indolizino[3,2-c]quinoline]
		193.3 to 193.6 °C	Brc1ccc2cc3c4ccccc4nc(-c4ccco4)c3n2c1 [Example 29, 9-Bromo-6-(furna-2-yl)indolizino[3,2-c]quinoline]
		232.3 to 232.5 °C	COC(=O)c1c2c3ccccc3nc(-c3ccc(Br)cc3)c2n2ccccc12 [Example 30, Methyl 6-(4-bromophenyl)indolizino[3,2-c]quinoline-12-carboxylate]
high activity ratio		205.9 to 206.3 °C	COC(=O)c1c2c3ccccc3nc(-c3cc(OC)cc(OC)c3)c2n2ccccc12 [Example 31, Methyl 6-(3,5-dimethoxyphenyl)indolizino[3,2-c]quinoline-12-carboxylate]
		245.8 to 246.2 °C	COC(=O)c1c2c3ccccc3nc(-c3cccc4ccccc34)c2n2ccccc12 [Example 32, Methyl 6-(naphthalene-1-yl)indolizino[3,2-c]quinoline-12-carboxylate]
	37%	230.8 to 231.4 °C	COC(=O)c1c2c3ccccc3nc(-c3ccc[nH]3)c2n2ccccc12 [Example 33, Methyl 6-(1H-pyrrol-2-yl)indolizino[3,2-c]quinoline-12-carboxylate]
		202.1 to 202.4 °C	CCOC(=O)c1c2c3ccccc3nc(-c3cccc(F)c3)c2n2ccccc12 [Example 34, Ethyl 6-(3-fluorophenyl)indolizino[3,2-c]quinoline-12-carboxylate]
		214.3 to 214.5 °C	CCOC(=O)c1c2c3ccccc3nc(-c3cccc(Cl)c3)c2n2ccccc12 [Example 35]
		245.8 to 246.1 °C	CCOC(=O)c1c2c3ccccc3nc(-c3ccc([N+](=O)[O-])cc3)c2n2ccccc12 [Example 36, Ethyl 6-(4-nitrophenyl)indolizino[3,2-c]quinoline-12-carboxylate]
		173.4 to 173.8 °C	CCOC(=O)c1c2c3ccccc3nc(-c3cccc(OC)c3)c2n2ccccc12 [Example 37, Ethyl 6-(3-methoxyphenyl)indolizino[3,2-c]quinoline-12-carboxylate]
	31%	195.5 to 195.8 °C	CCOC(=O)c1c2c3ccccc3nc(-c3ccc(OC)c(OC)c3)c2n2ccccc12 [Example 38, Ethyl 6-(3,4-dimethoxyphenyl)indolizino[3,2-c]quinoline-12-carboxylate]
		210.3 to 210.7 °C	CCOC(=O)c1c2c3ccccc3nc(-c3ccc4ccccc4c3)c2n2ccccc12 [Example 39, Ethyl 6-(naphthalene-2-yl)indolizino[3,2-c]quinoline-12-carboxylate]
		256 to 256.6 °C	COc1ccc(-c2nc3ccccc3c3cc4ccc(-c5ccc([N+](=O)[O-])cc5)cn4c23)cc1 [Example 41, 6-(4-Methoxyphenyl)-9-(4-nitrophenyl)indolizino[3,2-c]quinoline]
		177.5 to 177.8 °C	COc1cc(OC)cc(-c2ccc3cc4c5ccccc5nc(-c5cccc6ccccc56)c4n3c2)c1 [Example 42, 9-(3,5-Dimethoxyphenyl)-6-(naphthalene-1-yl)indolizino[3,2-c]quinoline]
		91.3 to 92 °C	c1ccc2c(-c3nc4ccccc4c4cc5ccc(-c6ccoc6)cn5c34)cccc2c1 [Example 43, 9-(Furan-3-yl)-6-(naphthalene-1 yl)indolizino[3,2-c]quinoline]
		221.6 to 221.9 °C	COc1ccc(-c2nc3ccccc3c3c(Br)c4ccccn4c23)cc1 [Example 44, 12-Bromo-6-(4-methoxyphenyl)indolizino[3,2-c]quinoline]

From patent US9296751B1, “Indolizino[3,2-c]quinoline derivatives, pharmaceutically acceptable salt thereof, preparation method thereof and pharmaceutical composition for treatment of cystic fibrosis containing the same as active ingredient” (INDUSTRY-ACADEMIC COOPERATION FOUNDATION, YONSEI UNIVERSITY, priority 2014, dated 2016)
